Legend:
Olfr93 = Olfr93 (Mus musculus, UniProt B9EI77); experiment: 1-octen-3-ol concentration-dependent activation of Olfr93: OR-dependent cAMP accumulation in a cell-based assay (functional dose-response); conditions: agonist, mouse Olfr93 (SEQ ID NO: 63), N-terminal FLAG/Rho/Lucy tags, HEK 293T cells, Gαolf, FIG. 6
Excerpt: (§1) The detection method pertains to OR-dependent accumulation of cAMP in said cells, as a result of OR activation by 1-octen-3-ol.
(§2) In a further embodiment, to complete the deorphanization process, the candidate OR genes are further expressed in vitro for confirmation of activity against the compounds used to isolate the olfactory sensory neurons and other structurally-related compounds of interest. […]
(§3) Neurons that were activated by DMTS were further isolated for full transcriptome analysis to identify the responsive odorant receptor. […] Amplified cDNA was then used to generate an Illumina cDNA library for Next-Generation-Sequencing and the generation of 100 base pair single read sequences. […]

Olfr120 = Olfr120 (Mus musculus, UniProt Q7TRJ4); experiment: 1-octen-3-ol concentration-dependent activation of Olfr120: OR-dependent cAMP accumulation in a cell-based assay (functional dose-response); conditions: agonist, mouse Olfr120 (SEQ ID NO: 67), N-terminal FLAG/Rho/Lucy tags, HEK 293T cells, Gαolf, FIG. 6
Sequence of Olfr120 (Q7TRJ4 1-321): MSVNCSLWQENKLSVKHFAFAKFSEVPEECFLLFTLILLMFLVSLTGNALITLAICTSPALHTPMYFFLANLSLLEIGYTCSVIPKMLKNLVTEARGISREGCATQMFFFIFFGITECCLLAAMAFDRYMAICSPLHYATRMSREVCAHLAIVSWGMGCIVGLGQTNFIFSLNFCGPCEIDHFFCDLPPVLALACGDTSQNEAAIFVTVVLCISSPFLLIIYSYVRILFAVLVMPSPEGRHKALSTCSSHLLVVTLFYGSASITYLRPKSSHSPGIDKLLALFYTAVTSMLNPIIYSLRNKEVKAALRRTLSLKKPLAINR
Excerpt: as §1, §2, §3

Olfr1364 = Olfr1364 (Mus musculus, UniProt Q5SZS9); experiment: 1-octen-3-ol concentration-dependent activation of Olfr1364: OR-dependent cAMP accumulation in a cell-based assay (functional dose-response); conditions: agonist, mouse Olfr1364 (SEQ ID NO: 69), N-terminal FLAG/Rho/Lucy tags, HEK 293T cells, Gαolf, FIG. 6
Sequence of Olfr1364 (Q5SZS9 9-314): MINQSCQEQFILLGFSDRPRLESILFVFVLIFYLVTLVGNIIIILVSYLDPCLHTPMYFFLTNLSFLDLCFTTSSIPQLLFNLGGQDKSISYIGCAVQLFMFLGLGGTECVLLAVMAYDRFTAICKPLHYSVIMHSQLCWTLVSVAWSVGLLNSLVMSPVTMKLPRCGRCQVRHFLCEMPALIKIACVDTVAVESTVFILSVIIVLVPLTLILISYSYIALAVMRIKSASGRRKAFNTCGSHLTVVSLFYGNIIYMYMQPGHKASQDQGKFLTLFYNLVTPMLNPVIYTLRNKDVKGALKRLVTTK
Excerpt: as §1, §2, §3

Olfr398 = Olfr398 (Mus musculus, UniProt Q8VFY0); experiment: 1-octen-3-ol concentration-dependent activation of Olfr398: OR-dependent cAMP accumulation in a cell-based assay (functional dose-response); conditions: agonist, mouse Olfr398 (SEQ ID NO: 65), N-terminal FLAG/Rho/Lucy tags, HEK 293T cells, Gαolf, FIG. 6
Sequence of Olfr398 (Q8VFY0 1-314): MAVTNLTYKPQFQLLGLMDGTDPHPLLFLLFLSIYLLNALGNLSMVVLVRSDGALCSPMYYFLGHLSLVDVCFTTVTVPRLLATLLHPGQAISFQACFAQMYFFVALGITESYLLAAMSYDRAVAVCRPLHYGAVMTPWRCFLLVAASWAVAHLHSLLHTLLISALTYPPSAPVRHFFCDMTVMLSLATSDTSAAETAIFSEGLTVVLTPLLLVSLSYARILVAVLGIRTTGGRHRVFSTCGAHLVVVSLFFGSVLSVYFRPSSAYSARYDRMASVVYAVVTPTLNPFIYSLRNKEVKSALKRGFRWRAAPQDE

OR2W1 = molecular target: T1, OR2W1 (Homo sapiens, UniProt Q9Y3N9, M81V); experiment: Concentration-dependent activation of OR2W1: OR-dependent cAMP accumulation in a cell-based assay (functional dose-response); design: expressed in transfected cells; host or cells: HEK293T; conditions: agonist transpirol, human OR2W1 (SEQ ID NO: 2), HEK293T cells expressing Golf, FIG. 7
T1 sequence (Q9Y3N9 1-320 M81V): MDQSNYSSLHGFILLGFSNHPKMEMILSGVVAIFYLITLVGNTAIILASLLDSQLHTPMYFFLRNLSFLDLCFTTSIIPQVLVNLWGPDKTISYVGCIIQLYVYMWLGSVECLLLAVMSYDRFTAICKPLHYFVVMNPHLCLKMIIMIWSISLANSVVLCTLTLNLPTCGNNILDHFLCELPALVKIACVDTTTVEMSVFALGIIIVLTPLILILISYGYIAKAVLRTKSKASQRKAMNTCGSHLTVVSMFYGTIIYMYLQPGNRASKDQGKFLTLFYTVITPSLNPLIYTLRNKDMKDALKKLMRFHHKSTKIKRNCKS
Excerpt: (§4) The detection method pertains to OR-dependent accumulation of cAMP in said cells, as a result of OR activation by transpirol.
(§5) The detection method pertains to OR-dependent accumulation of cAMP in said cells, as a result of OR activation by 3-methyl-2-hexenoic acid.
as §2
In the second method, a panel of odorant receptors comprising the 400 putatively functional human receptor repertoire were transfected into a cultured human HEK293T cell line described in WO2014/210585 expressing Human olfactory G-protein alpha subunit (Golf—SEQ. ID No. 49) and coupled to a cyclicAMP reporter. Said panel of in vitro odorant receptors were exposed to MCSs and the level of cAMP signal was measured for each receptor. […]

Olfr46 = Olfr46 (Mus musculus, UniProt Q2VPD7); experiment: Transpirol concentration-dependent activation of Olfr46: OR-dependent cAMP accumulation in a cell-based assay (functional dose-response); conditions: agonist, mouse Olfr46 (SEQ ID NO: 75), N-terminal FLAG/Rho/Lucy tags, HEK 293T cells, Gαolf, FIG. 7
Sequence of Olfr46 (Q2VPD7 1-310): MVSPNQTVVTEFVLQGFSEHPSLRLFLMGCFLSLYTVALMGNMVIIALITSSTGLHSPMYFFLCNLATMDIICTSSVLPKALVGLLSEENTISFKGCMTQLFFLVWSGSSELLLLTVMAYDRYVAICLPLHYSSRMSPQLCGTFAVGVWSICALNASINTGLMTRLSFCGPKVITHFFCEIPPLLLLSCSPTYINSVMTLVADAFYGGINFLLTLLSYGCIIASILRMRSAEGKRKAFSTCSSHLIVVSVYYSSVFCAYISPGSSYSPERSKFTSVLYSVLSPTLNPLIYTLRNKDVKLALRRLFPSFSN
Excerpt: as §4, §2, §3

Olfr263 = Olfr263 (Mus musculus, UniProt Q7TQT8); experiment: Concentration-dependent activation of Olfr263: OR-dependent cAMP accumulation in a cell-based assay (functional dose-response); conditions: agonist transpirol, mouse Olfr263 (SEQ ID NO: 22), N-terminal FLAG/Rho/Lucy tags, HEK 293T cells, Gαolf, FIG. 7
Sequence of Olfr263 (Q7TQT8 1-317): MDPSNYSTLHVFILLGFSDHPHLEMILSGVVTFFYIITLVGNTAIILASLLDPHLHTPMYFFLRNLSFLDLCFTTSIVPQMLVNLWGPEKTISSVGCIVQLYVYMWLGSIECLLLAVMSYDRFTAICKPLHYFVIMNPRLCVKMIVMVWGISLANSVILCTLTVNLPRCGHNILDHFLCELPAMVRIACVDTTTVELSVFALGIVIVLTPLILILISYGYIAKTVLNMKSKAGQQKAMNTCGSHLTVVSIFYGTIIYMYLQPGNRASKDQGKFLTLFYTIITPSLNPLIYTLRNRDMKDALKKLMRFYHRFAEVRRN
Excerpt: as §4, §5, §2, §3

Sequence of Olfr93 (B9EI77 1-312): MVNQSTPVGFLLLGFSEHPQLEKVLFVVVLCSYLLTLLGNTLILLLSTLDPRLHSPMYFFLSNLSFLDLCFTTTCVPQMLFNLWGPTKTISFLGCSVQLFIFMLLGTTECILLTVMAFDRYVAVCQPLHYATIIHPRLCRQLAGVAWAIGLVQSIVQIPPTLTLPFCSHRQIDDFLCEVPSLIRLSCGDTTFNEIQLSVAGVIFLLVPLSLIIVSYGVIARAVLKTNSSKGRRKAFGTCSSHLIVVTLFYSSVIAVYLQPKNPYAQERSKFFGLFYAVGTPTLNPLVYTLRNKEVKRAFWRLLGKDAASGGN

SMILES	EC50 (Olfr93) [µM]	EC50 (Olfr120) [µM]	EC50 (Olfr1364) [µM]	EC50 (Olfr398) [µM]	EC50 (OR2W1) [µM]	EC50 (Olfr46) [µM]	EC50 (Olfr263) [µM]
C=CC(O)CCCCC (stereo not shown) [1-Octen-3-ol, 1-octen-3-ol]	0.69	26	113	11.4	–	–	–
CCCC(C)(S)CCO (stereo not shown) [Transpirol, 3-methyl-3-sulphanylhexanol]	–	–	–	–	3.1	170	2.3

From patent US20250327793A1, “METHODS OF IDENTIFYING COMPOUNDS THAT MODULATE LAUNDRY MALODOR, MOLDY MALODOR, OR SWEAT MALODOR” (Firmenich SA, priority 2017, published 2025)
